# Counter-ions that a name gives are not always drawn.
# Test system: complement alternative pathway
# Assay: Biological Test Example 2: complement alternative pathway inhibition, IBL alternative pathway kit, serum from healthy volunteers
# Format: biochemical, human
# Conditions: LPS-coated plate, 37 °C 1 h, read-out: IC50 for inhibiting alternative pathway
# Experimental: The inhibitory effect of the compounds on the complement alternative pathway was detected using the IBL alternative pathway kit (COMPL AP330 RUO). Serum from healthy volunteers was collected and 1 portion was diluted with a buffer of 20 mM EDTA in gelatin (0.15 mM CaCl2, 141 mM NaCl, 4.5 mM MgCl2, 4.2 mM HEPES, and 0.1% gelatin at pH 7.4) to 50% (v/v), and 1 portion was diluted to 50% (v/v) with a buffer of 20 mM EGTA in gelatin. The compounds were prepared in DMSO to a working solution 100 times the final concentration. Before use, 50% of the above serum was diluted 1/18 with the AP diluent in the kit. 1 part of the compound working solution (v/v) or DMSO (positive control PC) was added to 99 parts of the diluted serum containing EGTA for pretreatment for 30 min, and 1 part of DMSO (v/v) was added to 99 parts of the diluted serum containing EDTA, as negative control (NC). The serum pretreated with the above compounds (or DMSO) was added at […] to the LPS-coated 96-well plate, incubated at 37° C. for 1 h, and the plate was washed 3 times with washing solution in the kit; the conjugated chromogenic substrate was added according to the instruction in the kit, and the absorbance was read at 405 nm with a microplate reader. The inhibitory activity of the compounds on alternative pathway was calculated using the following formula.
# OD^CPD was the OD value when the inhibitor was added, OD^NC was the OD value of the negative control, and OD^PC was the OD value of the positive control.
# Graphpad was used to perform nonlinear regression on the final concentrations and inhibition rates of the compounds to obtain the IC50 of the compounds for inhibiting the alternative pathway.
row,SMILES,IC50 [µM]
1,"COc1cc(C)c2[nH]ccc2c1CN1CCC(C2CCCC2)C[C@H]1c1ccc(C(=O)O)cc1 (single isomer, unassigned) [Ammonium of compound 11 (diastereomer 1)]",< 0.2
2,"COc1cc(C)c2[nH]ccc2c1CN1CCN(C2CC2)CC1c1ccc(C(=O)O)cc1 (single isomer, unassigned) [Compound 27-1, 4-(4-cyclopropyl-1-((5-methoxy-7-methyl-1H-indol-4-yl)methyl)piperazin-2-yl)benzoic acid]",< 0.2
3,"COc1cc(C)c2[nH]ccc2c1CN1CCC(C2CCC2)C[C@H]1c1ccc(C(=O)O)cc1 (single isomer, unassigned) [Formate of [compound 8 (diastereomer 1)]]",< 0.2
4,"COc1cc(C)c2[nH]ccc2c1CN1CCC2(CCCO2)C[C@H]1c1ccc(C(=O)O)cc1 (single isomer, unassigned) [Trifluoroacetate of compound 2-a (diastereomer 1)]",< 0.2
5,"COc1cc(C)c2[nH]ccc2c1CN1CCC(C2CC2)=C[C@H]1c1ccc(C(=O)O)cc1 [Ammonium salt of compound 12, (S)-4-(4-cyclopropyl-1-((5-methoxy-7-methyl-1H-indol-4-yl)methyl)-1,2,5,6-tetrahydropyridin-2-yl)benzoic acid]",< 0.2
6,"COCCO[C@H]1CCN(Cc2c(OC)cc(C)c3[nH]ccc23)[C@H](c2ccc(C(=O)O)cc2)C1 [Trifluoroacetate of compound 3, 4-[(2S,4S)-1-[(5-methoxy-7-methyl-1H-indol-4-yl)methyl]-4-(2-methoxyethoxy)piperidin-2-yl]benzoic acid]",< 0.2
7,"COc1cc(C)c2[nH]ccc2c1CN1CC[C@H](C2CC2)C[C@H]1c1ccc(C(=O)O)cc1 [Trifluoroacetate of compound 5-1 (diastereomer 2), 4-((2S)-4-cyclopropyl-1-((5-methoxy-7-methyl-1H-indol-4-yl)methyl)piperidin-2-yl)benzoic acid]",< 0.2

# — patent US20260035385A1, “BENZO NITROGEN-CONTAINING HETEROAROMATIC RING DERIVATIVE AND USE THEREOF IN MEDICINE” (Xizang Haisco Pharmaceutical Co., Ltd., priority 2021, published 2026)
